Results from US7091238B1, “Thienylhydrazon with digitalis-like properties (positive inotropic effects)” (University of Maryland, priority 1999, dated 2006).
Entries after “also recorded” stand apart in the source; their conditions may differ.

Legend:
LD 50 in dogs = assay type: in vivo; conditions: dog, in vivo
Description: (§1) LASSBio-294 has very low toxic effects. This was tested in whole mouse, rat, and dog models (Greaves, P. (1998) Exp. Toxicol. Pathol. 50, 283). These models are commonly used to predict toxicity in humans (Chou, W. L., Robbie G., Chung, S. M., Wu, T. C., and Ma, C. (1998) Pharm. Res. 15, 1474). […] These tests predict LASSBio-294 can be dosed in humans to achieve therapeutic plasma levels without significant risk of toxicity.

dogs = assay: LD 50 in dogs; assay type: in vivo; conditions: dogs
Description: as §1

rat cardiac muscle = assay: Isometric tension of papillary, atrial and ventricular bundles of cardiac muscle
Description: (§2) FIG. 2. The papillary muscle, and bundles of atrial and ventricular cells obtained from rat hearts were dissected and set in an aerated chamber to enable recording of isometric tension. LASSBio-294 was added to the chamber in a cumulative manner, first 10 μM and increasing to 50 μM and recordings made after allowing 5 min. for equilibration.
FIG. 3. LASSBio-294 was added to the physiologic solution at increasing concentrations. The isometric tension was expressed as a percent of control, as measured prior to addition of test solution. N=9 for each concentration.
a. The test shown in FIG. 2 measured the effect of LASSBio-294 on the isometric tension of papillary, atrial, and ventricular bundles of rat cardiac muscle. Chart traces are of muscle tension for each muscle group. […] FIG. 3 contains a graphic representation of the effect of LASSBio-294 on isometric tension of papillary, atrial, and ventricular bundles of rat cardiac muscle. LASSBio-294 at concentrations of 0 μM, 25 μM, 50 μM, 100 μM, 200 μM, and 500 μM was used. Isometric tension is expressed as a percent of control that was measured prior to addition of the test solution. […] General Method
as §2, with “The” for “FIG. 2. The”, “aerated verticle” for “aerated”, “manner. Recordings” for “manner, first 10 μM and increasing to 50 μM and recordings”

blood cells = assay: Blood cell analysis in treated mice; assay type: in vivo; conditions: 2 or 10 mg/kg
Description: b. Rats were weighed before and after treatment with LASSBio 204. […] Six rats were examined in each group, measurements were made after 1–15 days of treatment. […] Mice were injected with LASSBio-294 and their blood examined for cell changes. Experimental groups received 2 or 10 mg/kg of drug. […] Table 4 lists blood chemistry analysis of mice treated with LASSBio-294. Experimental groups received 2 or 10 mg/kg of drug. Controls were saline and solvent. […] The low values of glucose found could be due to an artifact of the technique, glucose being a byproduct of hemolysis. […] General Method

[1] = test system: Na^+/K^+-ATPase extracted from heart muscle or gastrocnemius muscle; assay: Effect on Na+/K+-ATPase; assay type: biochemical; conditions: enzyme from rat heart or gastrocnemius muscle
[2] = Plasma concentration kinetics; assay type: in vivo
Description: The plasma concentration of the drug reached a maximum at that time and afterwards tapered off to control levels within 2 hours.

isolated rat heart = assay: Electrocardiogram of isolated heart (modified Langendorff perfusion); conditions: isolated rat heart without pre-load; 10, 50, 100 μM
Description: FIG. 4. Hearts of adult rats were quickly removed and placed in an aorta retrograde perfusion system (modified Langendorrff) for measurement of electrocardiogram (ECG).
a Recordings of electrocardiogram (ECG) of isolated rat heart are shown in FIG. 4 which compare control, LASSBio-294 treatment, 10 uM, 50 μM and 100 μM and post-treatment wash. […] FIG. 5 illustrates a test of change in isometric tension induced by LASSBio-294 in isolated hearts under preload. Concentration of LASSBio-294 in the bathing solution is 50 μM, which is half of the highest concentration tested in the ECG tests described in FIG. 4. Hearts were treated under a pre-load of 1 g; control was compared to LASSBio-294 and wash. […] This effect was lost in the wash out period. The pre-load tension test is considered to be an animal model of congestive heart disease. Comparing the effect of drugs with this test is predictive of therapeutic effect of treatment in human congestive heart disease. General Method
Hearts were quickly removed and placed in an aorta retrograde perfusion system for measurement of ECG. Increasing concentrations of LASSBio-294 were added to the bathing solution. The system equilibrated for 5 min. before measurement of isometric tension after each addition.

[3] = test system: Ca^2+-ATPase extracted from heart muscle or gastrocnemius muscle; assay: Effect on Ca2+-ATPase; assay type: biochemical; conditions: enzyme from rat heart or gastrocnemius muscle
Text: Determination of phosphodiesterase direct effect was also negative.

## O=C(NN=Cc1cccs1)c1ccc2c(c1)OCO2 [LASSBio-294, 3,4-methylenedioxybenzoyl-2-thienylhydrazone]
LD 50 in dogs
  LD50: 1500 mg/kg
dogs
  LD 50 relative to the effective dose: > 1000 fold
Rat cardiac muscle; 0, 25, 50, 100, 200, 500 μM, nine tests per concentration
  isometric tension as percent of control vs concentration: increased for each concentration up to 200 μM
Rat cardiac muscle; papillary, atrial, ventricular bundles, 10 μM and 50 μM cumulative
  isometric tension: increase in tension
Rat cardiac muscle; ventricular, papillary and atrial bundles, concentrations of up to 200 uM
  increased tension over control: ≤ 2 fold
Blood cells
  blood cell values: unaffected; also recorded: no significant change in blood cell values
  hematocrit levels, leucocytes and hemoglobin: not significantly changed
[1]
  effect on Na^+/K^+-ATPase: did not affect
[2]
  retention time (RT); time of maximum plasma concentration: 14.59 min
  time for plasma concentration to taper off to control levels: ≤ 2 h
Isolated rat heart
  effect on ECG: No treatment had any effect on ECG; also recorded: no change
[3]
  effect on Ca^2+-ATPase: did not affect
